This is an account of results in patent publication US20060276970A1, “Apparatus and method for the ozone preservation of crops” (Biofresh Limited, priority 2003, published 2006).

For experiment [1], the system named is Botrytis cinerea. The experiment is described as follows: Grey mould lesion development on wound-inoculated tomato fruit in ozone-enriched air. It counts as in vivo. Conditions: 50 ppb ozone, even for 2-8 h, 13° C., 95% RH. From the text: Fruit were wound-inoculated with a mycelial plug containing the pathogen^2 at day 0, transferred to charcoal-filtered air (CFA) or an ozone enriched CFA environment and then removed at intervals to 'clean air'. ^1 Monitored using duplicate photometric analysers calibrated to US-EPA standards ^2 plugs (2.5 mm diameter) were removed from the advancing margins of 3-day-old B. cinerea cultures (4-5-day-old in the case of A. alternaria) and inserted into a superficial wound made in the surface of the fruit (two wound-inoculations per fruit) FIG. 1. Experimental design: Fruit maintained in 'clean air' (CFA, →) or ozone (50 ppb or 200 ppb (→) and then inoculated (↓) with an agar plug containing the pathogen. Exposure to ozone performed in the dark at 13° C. and 95%. FIG. 2. Impacts of ozone-enrichment on the development of grey mould (Botrytis cinerea) on tomato (Lycopersicon esculentum […]) fruit wound-inoculated with a mycelial plug (Lycopersicon esculentum […]). Fruit were maintained in controlled environment chambers at 13° C. and 95% RH ventilated with charcoal-filtered 'clean' air (CFA, □) or CFA plus a trace level of ozone (50 ppb, ●). For experimental design see FIG. 1. Values represent mean (±SE) for 3-4 replicate fruit. Experiments repeated several times.

Experiment [2] has as its system Alternaria alternata. The experiment is described as follows: Black spot development on wound-inoculated tomato fruit in ozone-enriched air. It counts as in vivo. Conditions: 50 ppb ozone, even for 2-8 h. Here is the method: The development of black spot (Alternaria alternata) was suppressed by more than 50% in fruit maintained in an atmosphere containing a trace level of ozone (50 ppb)—even for a relatively short period of time (2-8 h). Fruit were inoculated with a mycelial plug containing the pathogen and the experiment was performed according to design B (FIG. 1).
FIG. 3. Impacts of ozone-enrichment on the development of black spot (Alternaria alternata) raised on tomato fruit (Lycopersicon esculentum L. cv. Mareta) wound-inoculated with an agar plug containing mycelia of the pathogen. Fruit were maintained in controlled environment chambers at 13° C. and 95% RFL Chambers were ventilated with ‘clean’ (chracoal-filtered) air (CFA, □) or CFA plus a trace level of ozone (50 ppb, ●). Values represent mean (±SE) for 3-4 replicate fruit.

Experiment [3] has as its system Alternaria alternata. As to the kind of experiment: Spore production and viability on wound-inoculated tomato fruit. It counts as in vivo. The settings on record: for Spore prod.: 50 ppb O3, tomato fruit, 13° C., 95% RH, after 9-12 d. Here is the method:
(§1) Fruit were wound-inoculated with a suspension containing c. 25×10^3 spores of Botrytis, Alternaria or Colletotrichum, then incubated in clean air or in an atmosphere containing a trace level of ozone (50 ppb) at 13° C., 95% RH. After 9-12 d, spores were washed from inoculated fruit, counts made on a haemocytometer and recovered spore aliquots inoculated onto agar. In vitro spore germination was monitored following 72 h incubation in ‘clean air’ or ‘clean air’ plus a trace level of ozone.

For experiment [4], the system named is Botrytis cinerea. The experiment is described as above. It counts as in vivo. Conditions: for Spore germ.: 50 ppb O3, recovered spores on agar, 72 h incubation; for Spore prod.: 50 ppb O3, tomato fruit, 13° C., 95% RH, after 9-12 d. Here is the method: as §1
The next experiment relates to Colletotrichum coccodes. Described as above. It counts as in vivo. The settings on record: for Spore germ.: 50 ppb O3, recovered spores on agar, 72 h incubation; for Spore prod.: 50 ppb O3, tomato fruit, 13° C., 95% RH, after 9-12 d. Here is the method:
as §1

Experiment [5] has as its system Botrytis cinerea. The experiment is described as follows: Spore production on wound-inoculated easi-peel citrus, grapes and plums. Conditions: 100 ppb ozone, 13° C., 95% RH, grapes, plums. It counts as in vivo. Here is the method:
Fruit were wound-inoculated with spore suspensions of Botrytis cinerea, then incubated in either clean air or an atmosphere containing a trace level of ozone (100 ppb) at 13° C. and 95% RH.
FIG. 4. Impact of a trace level of ozone enrichment (solid bars) on the development of Botrytis cinerea (based on spore counts) on easi-peel citrus, grapes & plums Fruit were wound-inoculated with spore suspensions containing 10^3 (‘low’ inoculum concentration), 10^5 (‘medium’ inoculum concentration) or 10^7 (‘high’ inoculum concentration) Botrytis cinerea, then incubated in clean air or an atmosphere containing a trace level of ozone (100 ppb) at 13° C. and 95% RH, After 8-12 d, spores were washed from inoculated fruit, counts made on a haemocytometer and aliquots incubated on agar. Control fruit were maintained in ‘clean air’ (cross-hatch bars).
Plates 2a & 2b. Impact of a trace level of ozone enrichment on the development of Botrytis cinerea on easi-peel citrus and plums. Fruit were wound-inoculated with/in spore suspensions containing 10^3 (‘low’ inoculum concentration), 10^5 (‘medium’ inoculum concentration) or 10^7 (‘high’ inoculum concentration) Botrytis cinerea, then incubated in clean air or an atmosphere containing a trace level of ozone (100 ppb) at 13° C. and 95% RR Control fruit were maintained in ‘clean air’.

For experiment [6], the system named is silver scurf (Helminthosporium solani). The experiment is described as follows: Silver scurf development on stored potato tubers (spore counts, lesion area). Conditions: for Lesion development (%): potato tubers; for Spores/ml: potato tubers cv. Estima, 3.5° C. then 13° C. It counts as in vivo. Here is the method: Tubers […] were washed and selected for similar levels of silver scurf (Helminthosporium solani) infection. Prior to storage, tubers were sprayed with water in order to simulate a condensation event to promote the development of the disease. Tubers were then placed in chambers maintained at 3.5° C.±0.5° C., >95% RH) ventilated with either 'clean air' (charcoal-filtered air'; CFA) or 'clean air' plus a trace level of ozone (200 ppb). After four weeks, half the tubers were removed, then the temperature raised to 13±0.5° C. […] A spore count was calculated for each tuber (n=10) using a haemocytometer. Additionally, the initial and final surface area covered in silver scurf lesions was measured using a […] devices image analyser. Taking into account shrinkage of the potato over the storage period, the percentage of each tuber covered in silver scurf was calculated.

Experiment [7] concerns targeted fungal pathogens. As to the kind of experiment: Colony development of fungal pathogens in vitro. Type of experiment: cell-based. The settings on record: ozone concentrations upto 5.0 ppm. From the text:
This implies that the observed suppression of spoilage organisms by ozone results from molecular/biochemical changes in the treated produce per se—presumably through subtle shifts in the manner in which plant tissue responds to challenge by pathogens (see FIG. 7).

Experiment [8] deals with Botrytis cinerea. The experiment is described as follows: Vaccination: tomato fruit exposed to ozone before wound-inoculation with grey mould. Type of experiment: in vivo. Here is the method: Tomato fruit were incubated for varying periods in ‘clean’ air or an atmosphere enriched with a trace level of ozone (50 ppb), then wound-inoculated with a mycelial plug of grey mould (Botrytis cinerea). Two experimental designs were adopted for the investigation of ‘memory’ effects induced by ozone:
(§2) (a) Fruit were incubated in clean air prior to transfer to an atmosphere containing a trace level of ozone in such a manner that fruit were wound-inoculated with the pathogen at the same physiological age. For gene expression studies, RNA was extracted from fruit snap-frozen in liquid nitrogen 24 h after wounding/inoculation, immediately following exposure to ‘clean air’ or ozone, and after 1 or 2 weeks' storage in ‘clean air’
Or, (b) Fruit were incubated in clean air or ozone and wound-inoculated with Botrytis cincerea either (i) immediately following the period of exposure, (ii) following 1 weeks' incubation in ‘clean air’ or (iii) following 2 weeks' incubation in ‘clean air’
FIG. 5. Experimental designs to test whether exposure to a trace level of ozone vaccinates produce against subsequent infection. Tomato fruit were maintained in charcoal filtered air (CPA, →) or ozone (→) prior to wound-inoculation (↓) with grey mould (Botrytis cinerea). […] Lesion development was monitored during storage in clean air, over a 7-d incubation period. […]

Experiment [9] relates to Aco1, Aos, Chit3α, Chit9b, Glucac, Glucbs, Hpl. The experiment is described as follows: Gene expression (RT-PCR) in tomato fruit induced by wounding/pathogen. It counts as in vivo, Lycopersicon esculentum L. Conditions: 50 ppb ozone. Here is the method: as §2
Shifts in gene expression patterns were therefore consistent with the observed effects of trace ozone-enrichment on the development of a variety of fungal pathogens.
FIG. 7. Ozone-induced suppression of gene expression (probed by RT-PCR) induced by wounding/pathogen. Aco1 (aminocyclopropancarboxylic acid oxidase) and Aos (allene-oxide synthase) govern the production of ethylene and jasmonate, respectively. These are key signalling molecules. Chit3a (chi3 type chitinase acidic), Chit9b (chi9-type chitinase basic), Glucac (β-1-3 glucanase acidic), Glucbs (β-1-3 glucanase basic), and Hpl hydroperoxide lyase) are all involved with defence against pathogens and other stresses. Gapdh was used as the control gene. Measurements made on tomato fruit (Lycopersicon esculentum L.) incubated throughout in controlled environment chambers maintained at 13° C. and 95% RH and ventilated with clean air or 50 ppb ozone. FIG. 7a, immediate; FIG. 7b, 1 week; FIG. 7c 2 weeks.

[10] abbreviates: 200 ppb ozone weeks 1-4, NFA weeks 5-8.
Where [11] appears, read: 200 ppb ozone weeks 1-4 and weeks 5-8.

Turning to `O=[O+][O-]` [ozone], the “Grey mould lesion development” value in the experiment on Botrytis cinerea [1] is listed as “dramatically suppressed”. Also, the “Suppression of black spot development” value in the experiment on Alternaria alternata [2] was “more than 50%”. In addition, the Spore germ. in the experiment with Alternaria alternata [3] (50 ppb O3, recovered spores on agar, 72 h incubation) is on record as 99.86 ± 0.137; in the experiment with Botrytis cinerea [4], “significantly reduced”; with Botrytis cinerea [4] (listed as O3), 96.76 ± 0.613; with Colletotrichum coccodes, “significantly reduced”; with Colletotrichum coccodes (listed as O3), 52.50 ± 4.550. The Spore prod. entry in the experiment with Alternaria alternata [3] is given as “dramatically reduced”; in the experiment with Alternaria alternata [3] (listed as O3), 5.83 ± 0.645; with Botrytis cinerea [4], “dramatically reduced”; with Botrytis cinerea [4] (listed as O3), 7.50 ± 1.510; with Colletotrichum coccodes, “dramatically reduced”; in the experiment with Colletotrichum coccodes (listed as O3) it was 2.44 ± 0.526. For the same molecule, the “Development of the pathogen (based on spore production)” value in the experiment on Botrytis cinerea [5] was “dramatically reduced”. The “Lesion development (%)” value in [6] (setting [10]) came out at 21.34 a %; in [6] (setting [11]), 12.81 b %. Also, the results for the Spores/ml in [6] (setting [10]) and in experiment [6] (setting [11]) were 3.9 × 10^6 c Spores/ml and 1.7 × 10^6 b Spores/ml, respectively. Moreover, the “Direct effects on colony development in vitro” value in experiment [7] is “No direct effects”. Moreover, in the experiment with Botrytis cinerea [8] (tomato fruit transferred to clean air), the “Persistence of vaccination effect after removal from ozone” value is “persisted for up to two weeks”. Also, the “Pathogen development after prior exposure to ozone” value in the experiment on Botrytis cinerea [8] (trace level of ozone (50 ppb), even 2-8 h, before inoculation, tomato fruit) is on record as “marked suppression”. Besides, the “Persistence of gene expression effects after transfer to clean air” value in [9] is “persisted for upto two weeks”. In addition, the “Expression of signal-transduction and defence genes” value in experiment [9] (13° C., 95% RH) is given as “decline”.
